Reference: the supplement of paper PMC12819154, “High-throughput peptide-centric local stability assay extends protein–ligand identification to membrane proteins, tissues and bacteria” (Nature Structural & Molecular Biology, 2025)

Tests used:
Experiment in all cases: pEC50 of peptide local stability change
UniProt P37903 = conditions: peptide sequence: KFKLPTDR; direction: stabilized; replicate design: treated separately
Procedure: (§1)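 Dose-response HT-PELSA: desalted E. coli lysate treated separately per replicate with ATP (10 uM to 10 mM, 7 doses) for 30 min at 25 C, then a 4 min trypsin pulse at 22 C. Peptide ratio vs control was fitted with a 4-parameter log-logistic model (R2 > 0.9 in at least 3 replicates, CV of pEC50 <= 0.25); value is the mean pEC50 across replicates for stabilized or destabilized peptides.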

UniProt P39359 = conditions: peptide sequence: EVADFLINK; direction: stabilized; replicate design: treated separately
Procedure: as §1

UniProt P07862 = conditions: peptide sequence: AWTTLGCK; direction: stabilized; replicate design: treated separately
Procedure: as §1

UniProt P20083 = conditions: peptide sequence: RDGQVYNIAFENGEK; direction: stabilized; replicate design: treated separately
Procedure: as §1

UniProt P09980 = conditions: peptide sequence: DYAILYR; direction: stabilized; replicate design: treated separately
Procedure: as §1

UniProt P0AFW8 = conditions: peptide sequence: KNVEYLVVEAAGETR; direction: stabilized; replicate design: treated separately
Procedure: as §1

UniProt P07604 = conditions: peptide sequence: YAWPGNVR; direction: stabilized; replicate design: treated separately
Procedure: as §1

UniProt P75796 = conditions: peptide sequence: IPEAQTILSR; direction: stabilized; replicate design: treated separately
Procedure: as §1

UniProt P24230 = conditions: peptide sequence: LVQGDVGSGK; direction: stabilized; replicate design: treated separately
Procedure: as §1

UniProt P25741 = conditions: peptide sequence: GKDAFAEVK; direction: stabilized; replicate design: treated separately
Procedure: as §1

UniProt P23830 = conditions: peptide sequence: EALGVLHFK; direction: stabilized; replicate design: treated separately
Procedure: as §1

UniProt P76422 = conditions: peptide sequence: GGHLDDEQSPDWLFTR; direction: stabilized; replicate design: treated separately
Procedure: as §1

UniProt P31548 = conditions: peptide sequence: LPGELSGGQR; direction: stabilized; replicate design: treated separately
Procedure: as §1

UniProt P76014 = conditions: peptide sequence: VVEKLPAIADKDIGFILK; direction: stabilized; replicate design: treated separately
Procedure: as §1

UniProt P30015 = conditions: peptide sequence: TGDTPAQER; direction: stabilized; replicate design: treated separately
Procedure: as §1

UniProt P37634 = conditions: peptide sequence: HTVQSLIIESLKEK; direction: stabilized; replicate design: treated separately
Procedure: as §1

UniProt P11868 = conditions: peptide sequence: HIAGHAASLR; direction: stabilized; replicate design: treated separately
Procedure: as §1

UniProt P75828 = conditions: peptide sequence: YLDIINR; direction: stabilized; replicate design: treated separately
Procedure: as §1

UniProt P23837 = conditions: peptide sequence: VDTLRPGQGVGLAVAR; direction: stabilized; replicate design: treated separately
Procedure: as §1

UniProt P27278 = conditions: peptide sequence: TVAILGGESSGK; direction: stabilized; replicate design: treated separately
Procedure: as §1

UniProt P46889 = conditions: peptide sequence: DIAGEPVVADLAK; direction: stabilized; replicate design: treated separately
Procedure: as §1

UniProt P37908 = conditions: peptide sequence: QLSHSPHGR; direction: stabilized; replicate design: treated separately
Procedure: as §1

UniProt P0ACW4 = conditions: peptide sequence: GGISHCTAGGKFVCNDGSISASK; direction: stabilized; replicate design: treated separately
Procedure: as §1

UniProt P37344 = conditions: peptide sequence: ETLLNYR; direction: stabilized; replicate design: treated separately
Procedure: as §1

UniProt P21345 = conditions: peptide sequence: EVLGKFDK; direction: stabilized; replicate design: treated separately
Procedure: as §1

UniProt P13000 = conditions: peptide sequence: TVASCALLQAAK; direction: stabilized; replicate design: treated separately
Procedure: as §1

UniProt P37617 = conditions: peptide sequence: VTQVAFDKTGTLTVGKPR; direction: stabilized; replicate design: treated separately
Procedure: as §1

UniProt P32143 = conditions: peptide sequence: AGIPDCDQTR; direction: stabilized; replicate design: treated separately
Procedure: as §1

UniProt P23538 = conditions: peptide sequence: QVKIEDVPQEQR; direction: stabilized; replicate design: treated separately
Procedure: as §1

UniProt P12282 = conditions: peptide sequence: NQLNAGCFAAK; direction: stabilized; replicate design: treated separately
Procedure: as §1

UniProt P27300 = conditions: peptide sequence: SVDAVIVNGGVPR; direction: stabilized; replicate design: treated separately
Procedure: as §1

Sequence of UniProt P27300 (P27300 whole entry): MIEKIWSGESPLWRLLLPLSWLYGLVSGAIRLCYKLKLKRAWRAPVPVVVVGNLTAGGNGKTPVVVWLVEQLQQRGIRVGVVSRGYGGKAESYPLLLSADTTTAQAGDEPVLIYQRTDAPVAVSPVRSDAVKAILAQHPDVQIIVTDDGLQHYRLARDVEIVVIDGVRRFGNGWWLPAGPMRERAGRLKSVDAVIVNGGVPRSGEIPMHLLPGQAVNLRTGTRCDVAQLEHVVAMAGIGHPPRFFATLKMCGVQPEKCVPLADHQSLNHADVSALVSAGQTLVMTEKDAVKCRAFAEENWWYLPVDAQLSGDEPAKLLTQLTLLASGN
Sequence of UniProt P23538 (P23538 whole entry): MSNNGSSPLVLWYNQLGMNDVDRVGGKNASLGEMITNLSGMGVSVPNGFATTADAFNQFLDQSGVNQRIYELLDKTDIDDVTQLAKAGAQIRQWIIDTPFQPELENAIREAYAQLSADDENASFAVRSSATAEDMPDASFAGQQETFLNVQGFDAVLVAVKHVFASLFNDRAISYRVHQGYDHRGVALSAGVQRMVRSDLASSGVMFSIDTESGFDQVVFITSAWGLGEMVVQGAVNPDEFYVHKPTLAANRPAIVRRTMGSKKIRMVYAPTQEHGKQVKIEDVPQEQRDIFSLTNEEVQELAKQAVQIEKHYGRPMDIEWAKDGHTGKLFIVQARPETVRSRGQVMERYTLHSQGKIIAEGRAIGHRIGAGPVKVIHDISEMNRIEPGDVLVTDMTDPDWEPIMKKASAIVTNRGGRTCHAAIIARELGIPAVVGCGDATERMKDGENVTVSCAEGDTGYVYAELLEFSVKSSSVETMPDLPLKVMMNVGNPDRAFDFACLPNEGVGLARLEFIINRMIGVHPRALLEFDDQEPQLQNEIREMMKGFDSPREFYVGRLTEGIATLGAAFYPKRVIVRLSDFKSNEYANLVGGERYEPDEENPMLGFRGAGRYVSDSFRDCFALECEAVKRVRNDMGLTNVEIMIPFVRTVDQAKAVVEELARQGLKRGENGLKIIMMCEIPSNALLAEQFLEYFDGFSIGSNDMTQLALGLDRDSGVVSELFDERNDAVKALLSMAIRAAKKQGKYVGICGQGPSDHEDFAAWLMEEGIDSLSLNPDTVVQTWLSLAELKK
Sequence of UniProt P32143 (P32143 whole entry): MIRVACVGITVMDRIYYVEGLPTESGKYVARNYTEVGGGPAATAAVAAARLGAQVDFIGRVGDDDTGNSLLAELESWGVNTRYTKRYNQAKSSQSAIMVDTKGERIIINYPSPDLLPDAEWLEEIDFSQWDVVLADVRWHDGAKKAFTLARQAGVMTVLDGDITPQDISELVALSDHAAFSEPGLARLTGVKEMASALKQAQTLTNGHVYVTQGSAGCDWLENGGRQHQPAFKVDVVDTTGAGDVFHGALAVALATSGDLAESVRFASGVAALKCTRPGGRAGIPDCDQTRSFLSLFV
Sequence of UniProt P23837 (P23837 whole entry): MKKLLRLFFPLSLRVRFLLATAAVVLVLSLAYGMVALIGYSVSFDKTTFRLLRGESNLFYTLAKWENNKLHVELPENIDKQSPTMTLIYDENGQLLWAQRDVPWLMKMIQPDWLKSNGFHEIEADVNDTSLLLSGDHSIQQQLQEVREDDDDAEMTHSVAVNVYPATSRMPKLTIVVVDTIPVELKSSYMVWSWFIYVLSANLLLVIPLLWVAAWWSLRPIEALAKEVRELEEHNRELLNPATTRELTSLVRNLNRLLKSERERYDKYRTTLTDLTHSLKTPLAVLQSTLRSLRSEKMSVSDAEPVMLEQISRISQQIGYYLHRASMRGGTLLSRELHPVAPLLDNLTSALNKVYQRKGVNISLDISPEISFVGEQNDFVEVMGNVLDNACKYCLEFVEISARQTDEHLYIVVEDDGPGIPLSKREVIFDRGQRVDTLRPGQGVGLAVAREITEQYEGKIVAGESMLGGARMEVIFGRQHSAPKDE
Sequence of UniProt P20083 (P20083 whole entry): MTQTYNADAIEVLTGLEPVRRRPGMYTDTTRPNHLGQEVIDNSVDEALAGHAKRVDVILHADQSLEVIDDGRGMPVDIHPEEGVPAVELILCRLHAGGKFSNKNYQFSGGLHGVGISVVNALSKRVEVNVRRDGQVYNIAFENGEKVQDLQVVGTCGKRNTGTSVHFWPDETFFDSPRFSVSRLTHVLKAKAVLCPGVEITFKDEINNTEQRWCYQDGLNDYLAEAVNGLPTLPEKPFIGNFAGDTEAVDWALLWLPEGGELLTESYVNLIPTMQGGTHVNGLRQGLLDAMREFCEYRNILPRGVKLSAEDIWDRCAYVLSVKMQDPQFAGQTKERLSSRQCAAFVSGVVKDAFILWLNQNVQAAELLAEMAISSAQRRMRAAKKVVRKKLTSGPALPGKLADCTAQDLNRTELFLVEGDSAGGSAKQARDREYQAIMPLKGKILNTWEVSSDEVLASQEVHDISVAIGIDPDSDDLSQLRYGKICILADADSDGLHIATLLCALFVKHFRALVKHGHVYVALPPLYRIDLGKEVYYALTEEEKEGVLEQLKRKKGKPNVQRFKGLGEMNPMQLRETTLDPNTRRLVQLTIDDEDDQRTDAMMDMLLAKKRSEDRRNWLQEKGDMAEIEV
Sequence of UniProt P37634 (P37634 whole entry): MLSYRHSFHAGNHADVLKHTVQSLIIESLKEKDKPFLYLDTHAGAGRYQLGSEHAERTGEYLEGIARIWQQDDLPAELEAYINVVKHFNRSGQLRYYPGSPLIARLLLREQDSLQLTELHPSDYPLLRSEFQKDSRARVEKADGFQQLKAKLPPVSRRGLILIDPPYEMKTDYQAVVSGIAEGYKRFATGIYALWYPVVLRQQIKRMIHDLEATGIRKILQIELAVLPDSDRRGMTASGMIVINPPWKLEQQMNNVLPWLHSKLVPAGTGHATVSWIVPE
Sequence of UniProt P24230 (P24230 whole entry): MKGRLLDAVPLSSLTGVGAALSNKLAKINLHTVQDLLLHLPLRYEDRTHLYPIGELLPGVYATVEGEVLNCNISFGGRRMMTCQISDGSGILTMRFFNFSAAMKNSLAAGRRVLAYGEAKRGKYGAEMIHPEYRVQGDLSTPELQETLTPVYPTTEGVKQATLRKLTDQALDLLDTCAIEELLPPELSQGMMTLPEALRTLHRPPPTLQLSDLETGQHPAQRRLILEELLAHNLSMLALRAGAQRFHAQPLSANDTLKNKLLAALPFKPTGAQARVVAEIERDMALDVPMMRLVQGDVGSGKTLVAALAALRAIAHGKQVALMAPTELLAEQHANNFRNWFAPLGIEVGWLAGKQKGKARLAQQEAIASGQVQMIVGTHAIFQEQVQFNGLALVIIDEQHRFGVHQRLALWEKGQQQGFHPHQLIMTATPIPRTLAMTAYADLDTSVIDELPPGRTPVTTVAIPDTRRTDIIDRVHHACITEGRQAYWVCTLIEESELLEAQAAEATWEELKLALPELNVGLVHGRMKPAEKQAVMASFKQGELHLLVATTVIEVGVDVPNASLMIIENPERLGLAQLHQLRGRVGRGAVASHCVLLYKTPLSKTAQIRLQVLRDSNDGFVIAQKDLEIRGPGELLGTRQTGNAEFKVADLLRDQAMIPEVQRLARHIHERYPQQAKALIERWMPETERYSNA
Sequence of UniProt P46889 (P46889 whole entry): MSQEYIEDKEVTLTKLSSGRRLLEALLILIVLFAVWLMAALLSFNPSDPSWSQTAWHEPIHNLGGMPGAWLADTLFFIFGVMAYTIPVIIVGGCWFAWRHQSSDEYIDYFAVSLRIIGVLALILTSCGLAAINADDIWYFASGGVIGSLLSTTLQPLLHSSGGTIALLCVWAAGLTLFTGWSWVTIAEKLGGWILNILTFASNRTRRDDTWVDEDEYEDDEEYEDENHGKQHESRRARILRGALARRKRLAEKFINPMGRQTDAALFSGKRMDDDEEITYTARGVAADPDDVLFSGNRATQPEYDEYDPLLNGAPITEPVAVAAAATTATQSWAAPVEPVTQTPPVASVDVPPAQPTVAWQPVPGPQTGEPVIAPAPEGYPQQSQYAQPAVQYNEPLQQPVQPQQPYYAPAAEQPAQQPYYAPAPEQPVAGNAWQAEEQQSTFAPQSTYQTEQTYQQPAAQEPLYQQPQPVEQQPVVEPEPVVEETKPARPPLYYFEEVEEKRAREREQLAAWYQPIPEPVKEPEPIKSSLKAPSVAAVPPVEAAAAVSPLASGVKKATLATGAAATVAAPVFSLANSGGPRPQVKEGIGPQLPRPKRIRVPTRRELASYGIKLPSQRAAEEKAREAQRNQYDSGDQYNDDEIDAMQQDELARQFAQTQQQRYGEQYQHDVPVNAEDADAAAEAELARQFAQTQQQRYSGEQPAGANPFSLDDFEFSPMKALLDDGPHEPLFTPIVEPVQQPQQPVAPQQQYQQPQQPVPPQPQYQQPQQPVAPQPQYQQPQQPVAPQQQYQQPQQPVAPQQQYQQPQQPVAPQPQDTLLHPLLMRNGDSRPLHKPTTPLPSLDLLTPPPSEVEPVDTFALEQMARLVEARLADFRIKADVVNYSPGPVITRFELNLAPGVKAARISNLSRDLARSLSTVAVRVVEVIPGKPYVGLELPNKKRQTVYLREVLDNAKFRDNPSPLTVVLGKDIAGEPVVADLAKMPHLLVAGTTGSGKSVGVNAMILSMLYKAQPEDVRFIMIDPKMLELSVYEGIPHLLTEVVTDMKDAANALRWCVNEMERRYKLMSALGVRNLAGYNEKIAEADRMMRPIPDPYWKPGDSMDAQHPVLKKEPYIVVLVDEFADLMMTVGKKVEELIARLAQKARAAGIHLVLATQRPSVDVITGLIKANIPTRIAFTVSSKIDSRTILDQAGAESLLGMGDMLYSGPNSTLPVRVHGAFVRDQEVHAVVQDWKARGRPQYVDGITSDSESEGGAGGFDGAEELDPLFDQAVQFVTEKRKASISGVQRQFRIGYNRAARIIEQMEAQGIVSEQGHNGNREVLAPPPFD
Sequence of UniProt P0AFW8 (P0AFW8 whole entry): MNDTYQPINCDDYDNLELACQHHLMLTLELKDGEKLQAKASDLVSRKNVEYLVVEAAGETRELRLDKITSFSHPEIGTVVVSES
Sequence of UniProt P0ACW4 (P0ACW4 whole entry): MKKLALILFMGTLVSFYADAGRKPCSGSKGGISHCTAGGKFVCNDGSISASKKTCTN

Nc1ncnc2c1ncn2[C@@H]1O[C@H](COP(=O)(O)OP(=O)(O)OP(=O)(O)O)[C@@H](O)[C@H]1O [adenosine 5'-triphosphate]
Conditions	pEC50 of peptide local stability change
UniProt P0ACW4	2.19
UniProt P0AFW8	3.07
UniProt P07604	4.06
UniProt P07862	3.66
UniProt P09980	4.14
UniProt P11868	3.41
UniProt P12282	3.44
UniProt P13000	4.87
UniProt P20083	3.38
UniProt P21345	2.25
UniProt P23538	4.42
UniProt P23830	2.53
UniProt P23837	3.21
UniProt P24230	2.78
UniProt P25741	3.2
UniProt P27278	3.44
UniProt P27300	3.18
UniProt P30015	3.43
UniProt P31548	3.79
UniProt P32143	3.39
UniProt P37344	3.2
UniProt P37617	3.12
UniProt P37634	2.64
UniProt P37903	3.72
UniProt P37908	2.73
UniProt P39359	3.49
UniProt P46889	2.99
UniProt P75796	3.2
UniProt P75828	2.65
UniProt P76014	3.61
UniProt P76422	3.76
